This is an account of results in PubChem BioAssay (NCI).

Holding throughout (assay): NCI-60 cell line screen, 48 h
The subject of assay [1] is IGROV1 ovarian.
The test system of assay [2] is NCI/ADR-RES ovarian.
The subject of assay [3] is RPMI-8226 leukemia.
Assay [4] has as its system SR leukemia.
Assay [5] concerns OVCAR-3 ovarian.
In assay [6] the test system is SNB-19 CNS.
For assay [7], the system named is A498 renal.

Structures are written as SMILES.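 Tested at 5 concentrations; 48 h exposure; 96-well plates; endpoints linearly interpolated, else capped at highest concentration. The concentration for full growth arrest is given as TGI.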 *1 amine or outer side, *2 acyl side, *3 side chain or, on linkers, in order; H or OH if unused. Where a SMILES comes first, the peptide text is derived from it. Bridges are numbered along the chain shown (N, C = ends). [ ]: non-standard residue; d: D form. The star is where a group is joined. ξ: configuration not given here. X34 = O=C(C(CCCCNO[*:3])N[*:1])[*:2]; Fmoc = O=C(OCC1c2ccccc2-c2ccccc21)*; ξW = NC(Cc1c[nH]c2ccccc12)C(=O)O; Boc = CC(C)(C)OC(=O)*; ξP = O=C(O)C1CCCN1 A value given as a limit tells only on which side of the number the result lay.

On to `NC(=O)CNC(=O)C1CCCN1C(=O)C1CCCCNOC(=O)CC[C@@H](NC(=O)OCC2c3ccccc3-c3ccccc32)C(=O)NC(Cc2c[nH]c3ccccc23)C(=O)N1` (stereo partly drawn) (Fmoc-[dE][ξW][X34][ξP]G-NH2; ester 1-3), for which the TGI in assay [1], in assay [2], in assay [3], in assay [4], in assay [5] and in assay [6] was more than 100 µM throughout.

Regarding `CSc1nc(Cl)c2c(n1)Sc1nc3cc4c(cc3n1C2O)OCCO4` (stereo not drawn), the TGI is 18 µM in assay [1]; 0.407 µM in assay [2]; 2 µM in assay [3]; 2.46 µM in assay [5]; 3.99 µM in assay [6]; 15.9 µM in assay [7].

As for `CC1(C)OCC(COC(=O)C=[N+]=[N-])O1` (stereo not drawn), the TGI in assay [1], in assay [3], in assay [4], in assay [5], in assay [6] and in assay [7] was more than 100 µM throughout.

Regarding `CCN(CC)CCc1c2c(nc3ccccc13)C(=O)c1cccnc1C2=O`, the TGI was 5.53 µM in assay [1]; more than 100 µM in assay [2]; 6.43 µM in assay [3]; 0.993 µM in assay [4]; 5.8 µM in assay [5]; 5.29 µM in assay [7].

Turning to `NC(=O)N/N=C(\Cc1nc2ccc(Cl)cc2[nH]c1=O)C(=O)Nc1ccc(Cl)cc1Cl`, the TGI in assay [1], in assay [2], in assay [3], in assay [5], in assay [6] and in assay [7] was more than 100 µM each time.

With `NC(C(F)(F)F)(C(F)(F)F)P(=O)(Cc1ccccc1)Cc1ccccc1`, the TGI in assay [1], in assay [2], in assay [3], in assay [4], in assay [5] and in assay [6] was more than 100 µM each time.

Turning to `Cc1ccc(-c2c(C#N)c(-c3ccccc3)n(NS(=O)(=O)c3ccccc3)c(=O)c2C#N)cc1`, the TGI is more than 100 µM in assay [1]; more than 100 µM in assay [2]; 55.3 µM in assay [3]; more than 100 µM in assay [6]; more than 100 µM in assay [7].

For `COc1cc2c(cc1OC)C1=Cc3cc(OC)c(OC)cc3C(C)N1C=C2` (stereo not drawn), the TGI in assay [1], in assay [2], in assay [3], in assay [5], in assay [6] and in assay [7] was more than 100 µM in each case.

For `COc1cccc(-c2cc(=O)c3ccccc3o2)c1N`, the TGI in assay [1], in assay [2], in assay [3], in assay [4], in assay [5] and in assay [6] was more than 100 µM throughout.

`Cc1nnc(Nc2ccccc2)o1`: the TGI in assay [2], in assay [3], in assay [4], in assay [5] and in assay [6] was more than 100 µM throughout.

As to `OCC1CCCCCCCCCCC12SCCCS2` (stereo not drawn), the TGI in assay [1], in assay [2], in assay [3], in assay [4], in assay [5] and in assay [6] was more than 100 µM throughout.

As to `O=C(Nc1ccc(Br)cc1)c1c(-c2ccccc2)c2ccc(O)cc2oc1=O`, the TGI in assay [1], in assay [2], in assay [3], in assay [4], in assay [5] and in assay [7] was more than 10 µM throughout.

For `COc1ccccc1Nc1nc(N)nc(N)c1N=O`, the TGI in assay [1], in assay [2], in assay [3], in assay [4], in assay [6] and in assay [7] was more than 100 µM throughout.

Regarding `O=C1CCC[C@@H]2NC[C@@H](c3ccc4c(c3)OCO4)[C@H]12`, the TGI in assay [1], in assay [2], in assay [3], in assay [4], in assay [6] and in assay [7] was more than 25 µM each time.

As to `CC(O[Si](c1ccccc1)(c1ccccc1)C(C)(C)C)[C@H](NC(=O)OC(C)(C)C)C(=O)O[Si](c1ccccc1)(c1ccccc1)C(C)(C)C` (stereo partly drawn), the TGI in assay [1] amounted to 31.9 µM; in assay [2], 29 µM; in assay [3] it was 62.6 µM; in assay [4], 82 µM; in assay [6] it was 29.8 µM.

Take `CCOC(=O)CNC(=O)C(CSCc1ccc(Br)cc1)NC(=O)CCC(N)C(=O)OCC` (stereo not drawn): the TGI in assay [1], in assay [2], in assay [3], in assay [4], in assay [5] and in assay [6] was more than 50 µM each time.

On to `O=C(O)c1c2c(cc3c1CC1(Cc4ccccc4C1)C3)CCC2`, for which the TGI in assay [1], in assay [2], in assay [3], in assay [4], in assay [5] and in assay [7] was more than 100 µM each time.

For the molecule `S=C(N/N=C\C=N/NC(=S)N1CCCCC1)N1CCCCC1`, the TGI in assay [1] was more than 52.7 µM; in assay [2], more than 22.3 µM; in assay [3], more than 100 µM; in assay [5], 78.2 µM; in assay [6], more than 100 µM; in assay [7], more than 100 µM.

Turning to `Cc1ccc(C(=O)Nc2ccc(CP(=O)(O)O)cc2CP(=O)(O)O)cc1NC(=O)c1cccc(N)c1`, the TGI in assay [1], in assay [2], in assay [3], in assay [5] and in assay [7] was more than 100 µM throughout.

For `COC(=O)C1(C(=O)OC)CC2=C(S(=O)(=O)c3ccccc3)C[C@H](S(=O)(=O)c3ccccc3)[C@H]2C1`, the TGI was 49.9 µM in assay [1]; more than 100 µM in assay [2]; more than 100 µM in assay [3]; more than 100 µM in assay [5]; more than 100 µM in assay [6]; more than 100 µM in assay [7].

Turning to `COc1cc(O)c(/C=N/N=C(\N)NO)c(OC)c1`, the TGI in assay [1], in assay [2], in assay [3], in assay [5], in assay [6] and in assay [7] was more than 10 µM throughout.

For `COC(=O)CNC(=O)C(Cc1ccccc1)NC(=O)C(CCSC)NC(=O)C(Cc1ccc(O)cc1)NC(=O)OC(C)(C)C` (stereo not drawn) (Boc-YMFG-OMe; configuration not given here), the TGI in assay [1] was more than 100 µM; in assay [2], more than 100 µM; in assay [3], 50.2 µM; in assay [5], 38.9 µM; in assay [6], more than 100 µM; in assay [7], more than 100 µM.

As for `COc1ccc(-n2c(=O)c3[nH]cnc3n(-c3ccc(OC)cc3)c2=S)cc1`, the TGI in assay [1], in assay [2], in assay [3], in assay [4], in assay [5] and in assay [7] was more than 100 µM in each case.

On to `Cc1nnc2n1N=C(c1cc(F)c(Cl)cc1Cl)/C(=C/c1ccc(Cl)cc1)S2`, for which the TGI in assay [1] was 53.9 µM; in assay [2], 34.2 µM; in assay [3], 44 µM; in assay [5], 25.2 µM; in assay [6] it was more than 100 µM; in assay [7], 41.3 µM.

In the case of `O=C(/C=C/c1ccc(O)c([N+](=O)[O-])c1)CC(=O)/C=C/c1ccc(O)c([N+](=O)[O-])c1`, the TGI in assay [1] was 76.4 µM; in assay [2], more than 100 µM; in assay [3], 34.5 µM; in assay [5], more than 100 µM; in assay [6] it was more than 100 µM.

Regarding `COc1ccc(C2CC(c3c(O)ccc4ccccc34)=NN2c2ccc([N+](=O)[O-])cc2[N+](=O)[O-])cc1OC` (stereo not drawn), the TGI in assay [1] is more than 71.2 µM; in assay [2] it was 17.4 µM; in assay [3], 15.8 µM; in assay [5], 58.3 µM; in assay [6] it was more than 60.3 µM; in assay [7], 35.9 µM.

As to `O=C(O)CN(CCNC(=O)OCC1c2ccccc2-c2ccccc21)CCNC(=O)OCC1c2ccccc2-c2ccccc21`, the TGI in assay [1] is 45.7 µM; in assay [2], more than 100 µM; in assay [3], 76.1 µM; in assay [4], 50.2 µM; in assay [5], 35.6 µM; in assay [6] it was 73.4 µM.

Regarding `COc1cc(-c2cc(=O)c3cc4c(cc3[nH]2)OCO4)cc(OC)c1O`, the TGI in assay [1], in assay [2], in assay [3], in assay [4], in assay [5] and in assay [6] was more than 10 µM each time.

For the molecule `O=C(O)CSc1nnc(COc2ccc(Cl)cc2)n1-c1ccccc1`, the TGI in assay [1], in assay [2], in assay [5], in assay [6] and in assay [7] was more than 100 µM each time.

`COc1ccccc1N/C(=C\C(=O)C(=O)NC12CC3CC(CC(C3)C1)C2)c1ccccc1`: the TGI in assay [1], in assay [2], in assay [3], in assay [4], in assay [5] and in assay [7] was more than 10 µM in each case.

Consider `O=C(CN1c2ccccc2Sc2ccccc21)N1CCNCC1`, for which the TGI in assay [1], in assay [2], in assay [3], in assay [5], in assay [6] and in assay [7] was more than 100 µM each time.

Consider `CN(C)CCCOc1nc2c(c(=O)n(C)c(=O)n2C)n1C` (tested in a mixture with another compound), for which the TGI in assay [1], in assay [2], in assay [3], in assay [5], in assay [6] and in assay [7] was more than 100 µM in each case.

`Cc1c(-c2nc3ccccc3[nH]2)c(=O)n(-c2ccccc2)n1C`: the TGI in assay [1], in assay [2], in assay [3], in assay [5] and in assay [6] was more than 100 µM each time.

Turning to `Cc1cc(N(CCC#N)CCC#N)ccc1/C=N/NC(=O)c1cc(Cl)ccc1O`, the TGI in assay [1], in assay [2], in assay [4], in assay [5] and in assay [7] was more than 100 µM in each case.

For `CCCc1cc(=O)c2c(C)c3[nH]c4ccc(Cl)cc4c3c(C)c2[nH]1`, the TGI in assay [1] was 4.7 µM; in assay [2] it was 10.2 µM; in assay [4], 4.93 µM; in assay [6], 8.9 µM; in assay [7] it was 2.92 µM.

On to `CC(C)(C)c1ccc2c(c1)CNCCNCc1cc(C(C)(C)C)ccc1OCC1(CO2)COc2ccc(C(C)(C)C)cc2CNCCNCc2cc(C(C)(C)C)ccc2OC1`, for which the TGI in assay [1] is 2.5 µM; in assay [2] it was 3.07 µM; in assay [3], 4.2 µM; in assay [5], 3.12 µM; in assay [6], 2 µM; in assay [7], 2.83 µM.

In the case of `c1ccc2c(c1)OC(N1CCCC1)c1cnc(N3CCCC3)nc1-2` (stereo not drawn), the TGI was 45.8 µM in assay [3]; more than 100 µM in assay [4]; 97.5 µM in assay [5]; more than 100 µM in assay [6]; 76 µM in assay [7].

Turning to `CC(CN1c2ccccc2Sc2ccccc21)N(C)C` (stereo not drawn), the TGI in assay [1] was found to be 34.7 µM; in assay [2] it was 30.5 µM; in assay [4], 40.9 µM; in assay [5] it was 31.1 µM; in assay [6], 33 µM; in assay [7] it was 34.4 µM.

For `NCC1CCN(c2nc3ccccc3c3c2CCCC3)CC1`, the TGI in assay [1] worked out at 24.5 µM; in assay [2], 32.3 µM; in assay [3], 6.3 µM; in assay [5], 24.9 µM; in assay [6], 24.3 µM; in assay [7], 25.7 µM.

Turning to `O=C(CC(=O)n1nc(-c2ccccc2)c(N=Nc2ccccc2C(=O)O)c1-c1ccccc1)Nc1ccc(Cl)cc1`, the TGI was more than 100 µM in assay [1], more than 100 µM in assay [3], 42 µM in assay [4] and 81.8 µM in assay [6].
